Tests used:
[1] = Binding affinity for dopamine D3 receptor
D(4) dopamine receptor = target: T1, D(4) dopamine receptor (Homo sapiens, UniProt P21917); assay: Binding affinity for dopamine D4 receptor
T1 sequence (P21917 whole entry): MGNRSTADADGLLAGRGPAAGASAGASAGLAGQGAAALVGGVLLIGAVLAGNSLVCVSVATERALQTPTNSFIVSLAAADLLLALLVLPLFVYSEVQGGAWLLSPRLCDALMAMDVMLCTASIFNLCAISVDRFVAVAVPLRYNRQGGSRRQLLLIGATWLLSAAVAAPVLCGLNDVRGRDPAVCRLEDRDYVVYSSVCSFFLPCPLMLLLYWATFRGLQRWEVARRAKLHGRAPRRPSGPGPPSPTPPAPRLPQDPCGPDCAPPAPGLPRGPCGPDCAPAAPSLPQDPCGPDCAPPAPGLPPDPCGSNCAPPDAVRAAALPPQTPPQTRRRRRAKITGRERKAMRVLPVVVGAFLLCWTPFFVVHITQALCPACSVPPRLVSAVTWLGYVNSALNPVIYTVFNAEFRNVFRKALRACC

[2] = Binding affinity for dopamine D2 receptor to that of dopamine D4 receptor
D(2) dopamine receptor = D(2) dopamine receptor (Homo sapiens, UniProt P14416)
Sequence of D(2) dopamine receptor (P14416 whole entry): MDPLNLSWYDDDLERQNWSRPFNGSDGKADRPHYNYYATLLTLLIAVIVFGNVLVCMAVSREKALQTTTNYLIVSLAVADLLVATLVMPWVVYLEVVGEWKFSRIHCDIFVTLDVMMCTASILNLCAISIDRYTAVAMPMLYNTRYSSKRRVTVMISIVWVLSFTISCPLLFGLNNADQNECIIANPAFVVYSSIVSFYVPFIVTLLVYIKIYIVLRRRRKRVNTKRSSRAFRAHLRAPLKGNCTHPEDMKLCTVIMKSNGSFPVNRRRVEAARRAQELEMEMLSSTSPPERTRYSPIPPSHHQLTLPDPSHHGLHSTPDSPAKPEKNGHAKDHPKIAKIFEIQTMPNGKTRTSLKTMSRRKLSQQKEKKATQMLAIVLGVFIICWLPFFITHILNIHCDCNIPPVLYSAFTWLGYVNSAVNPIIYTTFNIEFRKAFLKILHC

| SMILES | Ki [1] | Ki (D(4) dopamine receptor) | Ratio [2] | Ki (D(2) dopamine receptor) |
| --- | --- | --- | --- | --- |
| O=C(CCCN1CCC(c2ccc(Cl)cc2)CC1)c1ccc(F)cc1 | 0.046 µM | – | – | – |
| O=C(CN1C2CCC1CC(O)(c1ccc(Cl)cc1)C2)c1ccc(F)cc1 (stereo not drawn) | > 10 µM | – | – | – |
| O=C(CCCN1C2CCC1CC(O)(c1ccccc1)C2)c1ccc(F)cc1 (stereo not drawn) | 0.0032 µM | 0.0191 µM | – | – |
| O=C(CCCN1CCN(c2ccc(Cl)cc2)CC1)c1ccc(F)cc1 | – | 0.0175 µM | – | – |
| O=C(CCCN1C2CCC1CC(c1ccccc1)C2)c1ccc(F)cc1 (stereo not drawn) | 0.0514 µM | 0.177 µM | 0.7 | – |
| O=C(CCCN1C2CCC1CC(O)(c1ccc(Cl)cc1)C2)c1ccc(F)cc1 (stereo not drawn) | – | – | 0.03 | – |
| O=C(CCCN1C2CCC1CC(c1ccc(Cl)cc1)C2)c1ccc(F)cc1 (stereo not drawn) | 0.222 µM | 0.345 µM | 0.6 | 0.19 µM |

Reference: ChEMBL document CHEMBL1138643, “Haloperidol: towards further understanding of the structural contributions of its pharmacophoric elements at D2-like receptors” (Bioorg Med Chem Lett, 2004)
